The results in this text go back to publication PMC8938452.

The data set in a line: three-component macrocyclisation: bis(chloroacetamide) (1 eq) + diamine (1.2 eq) + CS2 (8 eq); in situ dithiocarbamate formation then S-alkylation (C-S bond, Cl displacement) at both ends, metal-free, no added base, 15 min. The following applies: the molecule shown is the open-chain precursor, PEG-200, 400.0 mM, 25.0 °C, 0.25 h.

On to `CCCCN(CCN(CCCC)C(=S)SCC(=O)N(C)CCN(C)C(=O)CCl)C(=S)[S-]` [1], for which the ring closure, isolated yield (16-membered ring) came out at 61.3%. Same read-out and setting: the figure for `CN(CCN(C)C(=O)CSC(=S)N(C)CCN(C)C(=S)[S-])C(=O)CCl` [2] is 24.1%. Turning to `CN(CCN(C)C(=O)CSC(=S)NCCCNC(=S)[S-])C(=O)CCl` [3], the ring closure, isolated yield (17-membered ring) came to 78.5%.

With `O=C(CCl)NCCCNC(=O)CSC(=S)NCCCNC(=S)[S-]` [4], the ring closure, isolated yield (18-membered ring) came out at 85.3%.

In the case of `O=C(CCl)NCCCNC(=O)CSC(=S)NCCCCCCNC(=S)[S-]` [5], the ring closure, isolated yield (21-membered ring) was 74.7%. As for `O=C(CCl)NCCCNC(=O)CSC(=S)N(CCN(Cc1ccccc1)C(=S)[S-])Cc1ccccc1` [6], the ring closure, isolated yield (17-membered ring) is 69.4%.

On to `CN(CCN(C)C(=S)SCC(=O)NCCN(C(=O)CCl)c1cccc2ccccc12)C(=S)[S-]` [7], for which, for the setting “16-membered ring”, the ring closure, isolated yield is 84.6%.
